Laboratory results as given in article PMC11963564 (Antimicrobial Agents and Chemotherapy, 2025).
Like-named read-outs stand apart in the source and are kept apart here.

Experiments:
SARS-CoV-2 Omicron JN.1 = test: microbe, parasite or virus in culture; assay type: cell-based
SARS-CoV-2 Omicron BA.1 = test: microbe, parasite or virus in culture; assay type: cell-based
[1] = system: SARS-CoV-2 Omicron XBB.1.16; test: microbe, parasite or virus in culture; assay type: cell-based
SARS-CoV-2 Omicron EG.5 = test: microbe, parasite or virus in culture; assay type: cell-based
[2] = system: SARS-CoV-2 Omicron XBB.1.5; test: microbe, parasite or virus in culture; assay type: cell-based
[3] = system: SARS-CoV-2 Omicron CH.1.1; test: microbe, parasite or virus in culture; assay type: cell-based
SARS-CoV-2 Omicron BA.5 = test: microbe, parasite or virus in culture; assay type: cell-based
SARS-CoV-2 Omicron BA.4 = test: microbe, parasite or virus in culture; assay type: cell-based
SARS-CoV-2 WIV04 = conditions: cited from earlier work
SARS-CoV-2 Delta = conditions: cited from earlier work
[4] = Severe acute respiratory syndrome coronavirus 2, Vero C1008, 72 h
[5] = Severe acute respiratory syndrome coronavirus 2, Vero C1008, 48 h

CC(C)(C)[C@H](NC(=O)C(F)(F)F)C(=O)N1C[C@H]2[C@@H]([C@H]1C(=O)N[C@H](C#N)C[C@@H]1CCNC1=O)C2(C)C [nirmatrelvir, reference compound]
IC50 (SARS-CoV-2 Omicron JN.1; [4]): 0.098 ± 0.027 µM
IC90 (SARS-CoV-2 Omicron JN.1; [4]): 0.469 ± 0.183 µM
IC50 (SARS-CoV-2 Omicron BA.1; [5]): 0.057 ± 0.012 µM
IC90 (SARS-CoV-2 Omicron BA.1; [5]): 0.142 ± 0.061 µM
IC50 [1, 4]: 0.101 ± 0.023 µM
IC90 [1, 4]: 0.262 ± 0.14 µM
IC50 (SARS-CoV-2 Omicron EG.5; [4]): 0.098 ± 0.026 µM
IC90 (SARS-CoV-2 Omicron EG.5; [4]): 0.617 ± 0.17 µM
IC50 [2, 5]: 0.022 ± 0.014 µM
IC90 [2, 5]: 0.084 ± 0.039 µM
IC50 [3, 5]: 0.026 ± 0.021 µM
IC90 [3, 5]: 0.059 ± 0.026 µM
IC50 (SARS-CoV-2 Omicron BA.5; [5]): 0.09 ± 0.038 µM
IC90 (SARS-CoV-2 Omicron BA.5; [5]): 0.341 ± 0.14 µM
IC50 (SARS-CoV-2 Omicron BA.4; [5]): 0.072 ± 0.013 µM
IC90 (SARS-CoV-2 Omicron BA.4; [5]): 0.157 ± 0.077 µM

simnotrelvir
IC50 (SARS-CoV-2 Omicron JN.1; read-out: IC50): 0.124 ± 0.031 µM
IC90 (SARS-CoV-2 Omicron JN.1; read-out: IC90): 0.684 ± 0.188 µM
IC50 (SARS-CoV-2 Omicron BA.1; read-out: IC50): 0.148 ± 0.062 µM
IC90 (SARS-CoV-2 Omicron BA.1; read-out: IC90): 0.267 ± 0.082 µM
IC50 ([1]; read-out: IC50): 0.13 ± 0.02 µM
IC90 ([1]; read-out: IC90): 0.23 ± 0.093 µM
IC50 (SARS-CoV-2 WIV04): 0.026 µM
IC50 (SARS-CoV-2 Omicron EG.5; read-out: IC50): 0.174 ± 0.097 µM
IC90 (SARS-CoV-2 Omicron EG.5; read-out: IC90): 0.803 ± 0.236 µM
IC50 ([2]; read-out: IC50): 0.082 ± 0.058 µM
IC90 ([2]; read-out: IC90): 0.254 ± 0.111 µM
IC50 ([3]; read-out: IC50): 0.065 ± 0.006 µM
IC90 ([3]; read-out: IC90): 0.099 ± 0.052 µM
IC50 (SARS-CoV-2 Delta): 0.034 µM
IC50 (SARS-CoV-2 Omicron BA.5; read-out: IC50): 0.208 ± 0.055 µM
IC90 (SARS-CoV-2 Omicron BA.5; read-out: IC90): 0.449 ± 0.171 µM
IC50 (SARS-CoV-2 Omicron BA.4; read-out: IC50): 0.189 ± 0.006 µM
IC90 (SARS-CoV-2 Omicron BA.4; read-out: IC90): 0.25 ± 0.067 µM
